Bridge positions count the residues as written; N and C are the ends. Square brackets hold non-standard residues; d marks the D form. Peptide text beside a SMILES is read from it. * marks the point of attachment. ξ: configuration not given here. DOTA = O=C(O)CN1CCN(CC(=O)O)CCN(CC(=O)*)CCN(CC(=O)O)CC1; Trp(5-F) = N[C@@H](Cc1c[nH]c2ccc(F)cc12)C(=O)O; Phe(2-CF3) = N[C@@H](Cc1ccccc1C(F)(F)F)C(=O)O; Trp(7-aza) = N[C@@H](Cc1c[nH]c2ncccc12)C(=O)O; Pro(trans-4-F) = O=C(O)[C@@H]1C[C@@H](F)CN1; Phe(4-F) = N[C@@H](Cc1ccc(F)cc1)C(=O)O; Gly(4-THP) = N[C@H](C(=O)O)C1CCOCC1; Nva(3-Et) = CCC(CC)[C@H](N)C(=O)O; Cha = N[C@@H](CC1CCCCC1)C(=O)O; Cba = N[C@@H](CC1CCC1)C(=O)O; Chg = N[C@H](C(=O)O)C1CCCCC1; Tle = CC(C)(C)[C@H](N)C(=O)O; Nle = CCCC[C@H](N)C(=O)O; Aze = O=C(O)[C@@H]1CCN1; ξK = NCCCCC(N)C(=O)O
Biological target: T1, human DLL3 (Homo sapiens, UniProt Q9NYJ7)
T1 sequence (Q9NYJ7 27-618): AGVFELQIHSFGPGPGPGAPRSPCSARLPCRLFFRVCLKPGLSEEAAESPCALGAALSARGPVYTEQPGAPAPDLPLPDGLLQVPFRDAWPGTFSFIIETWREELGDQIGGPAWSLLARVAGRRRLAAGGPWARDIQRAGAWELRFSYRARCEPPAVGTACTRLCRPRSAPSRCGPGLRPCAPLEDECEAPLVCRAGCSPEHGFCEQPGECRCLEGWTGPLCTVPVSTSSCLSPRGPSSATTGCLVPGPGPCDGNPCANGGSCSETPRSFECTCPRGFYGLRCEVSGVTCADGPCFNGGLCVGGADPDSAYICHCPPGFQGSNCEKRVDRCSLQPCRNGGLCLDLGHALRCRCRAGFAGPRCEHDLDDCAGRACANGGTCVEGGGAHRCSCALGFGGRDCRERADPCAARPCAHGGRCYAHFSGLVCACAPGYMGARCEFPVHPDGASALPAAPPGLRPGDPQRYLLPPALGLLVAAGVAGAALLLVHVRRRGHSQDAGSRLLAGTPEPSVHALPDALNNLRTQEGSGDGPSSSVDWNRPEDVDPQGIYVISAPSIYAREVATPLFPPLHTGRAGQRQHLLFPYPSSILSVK
Assay: Affinity determination by Surface Plasmon Resonance (SPR)
Type: binding
Conditions: 25° C., biotinylated human DLL3 immobilized on streptavidin sensor chip, 1:1 binding model; read-out: SPR KD
Protocol: SPR studies were performed on the compounds disclosed herein using the following protocol.
Biotinylated target ligand human DLL3 was immobilized on a streptavidin sensor chip. A reference surface was set up for nonspecific binding and refractive index changes. For analysis of the kinetics of interactions, varying concentrations of samples were injected at a flow rate of 100 μL/minute using running buffer containing 20 mM phosphate buffer with 2.7 mM KCl, 137 mM NaCl, 0.05% Surfactant P20 and 2% DMSO. Sensorgram curves were fitted with 1:1 binding model, and affinity and kinetic parameters were obtained using Biacore Insight evaluation 4.0. software.

Compound | Kd [nM]
CC(=O)N[C@@H](Cc1c[nH]c2ccc(F)cc12)C(=O)N[C@H](C(=O)N[C@H](C(=O)N[C@H]1CSSC[C@@H](C(=O)N[C@@H](Cc2c[nH]c3ncccc23)C(=O)N2CC[C@H]2C(=O)NC(CCCCNC(=O)CN2CCN(CC(=O)O)CCN(CC(=O)O)CCN(CC(=O)O)CC2)C(N)=O)NC(=O)[C@H](CC(=O)O)NC(=O)[C@H](Cc2cnc[nH]2)NC(=O)[C@H](Cc2ccc(F)cc2)NC(=O)[C@H](CC(N)=O)NC(=O)[C@H](CC(N)=O)NC1=O)C1CCOCC1)[C@@H](C)O (stereo partly drawn) [compound 123, Ac-(5Fluoro-W)-T-(THPG)-C(3)-N-N-(4Fluoro-F)-H-D-C(3)-(7Aza-W)-(Aze)-[D-Lys(DOTA)]-NH2] (Ac-[Trp(5-F)]T[Gly(4-THP)]CNN[Phe(4-F)]HDC[Trp(7-aza)][Aze][ξK](DOTA)-NH2; disulfide 4-10) | 10 to 100
CCCC[C@H](NC(=O)[C@@H](NC(=O)[C@H](Cc1c[nH]c2ccc(F)cc12)NC(C)=O)[C@@H](C)O)C(=O)N[C@H]1CSSC[C@@H](C(=O)N[C@@H](Cc2c[nH]c3ncccc23)C(=O)N2CC[C@H]2C(=O)NC(CCCCNC(=O)CN2CCN(CC(=O)O)CCN(CC(=O)O)CCN(CC(=O)O)CC2)C(N)=O)NC(=O)[C@H](CC(=O)O)NC(=O)[C@H](Cc2cnc[nH]2)NC(=O)[C@H](Cc2ccc(F)cc2)NC(=O)[C@H](CC(N)=O)NC(=O)[C@H](CC(N)=O)NC1=O (stereo partly drawn) [compound 124, Ac-(5Fluoro-W)-T-(Nle)-C(3)-N-N-(4Fluoro-F)-H-D-C(3)-(7Aza-W)-(Aze)-[D-Lys(DOTA)]-NH2] (Ac-[Trp(5-F)]T[Nle]CNN[Phe(4-F)]HDC[Trp(7-aza)][Aze][ξK](DOTA)-NH2; disulfide 4-10) | 10 to 100
CC(=O)N[C@@H](Cc1c[nH]c2ccc(F)cc12)C(=O)N[C@H](C(=O)N[C@@H](CC1CCC1)C(=O)N[C@H]1CSSC[C@@H](C(=O)N[C@@H](Cc2c[nH]c3ncccc23)C(=O)N2CC[C@H]2C(=O)N[C@H](CCCCNC(=O)CN2CCN(CC(=O)O)CCN(CC(=O)O)CCN(CC(=O)O)CC2)C(N)=O)NC(=O)[C@H](CC(=O)O)NC(=O)[C@H](Cc2cnc[nH]2)NC(=O)[C@H](Cc2ccc(F)cc2)NC(=O)[C@H](CC(N)=O)NC(=O)[C@H](CC(N)=O)NC1=O)[C@@H](C)O [compound 126, Ac-(5Fluoro-W)-T-(CBA)-C(3)-N-N-(4Fluoro-F)-H-D-C(3)-(7Aza-W)-(Aze)-[D-Lys(DOTA)]-NH2] (Ac-[Trp(5-F)]T[Cba]CNN[Phe(4-F)]HDC[Trp(7-aza)][Aze][dK](DOTA)-NH2; disulfide 4-10) | 10 to 100
CC(=O)N[C@@H](Cc1c[nH]c2ccc(F)cc12)C(=O)N[C@H](C(=O)N[C@H](C(=O)N[C@H]1CSSC[C@@H](C(=O)N[C@@H](Cc2c[nH]c3ncccc23)C(=O)N2CC[C@H]2C(=O)N[C@H](CCCCNC(=O)CN2CCN(CC(=O)O)CCN(CC(=O)O)CCN(CC(=O)O)CC2)C(N)=O)NC(=O)[C@H](CC(=O)O)NC(=O)[C@H](Cc2cnc[nH]2)NC(=O)[C@H](Cc2ccc(F)cc2)NC(=O)[C@H](CC(N)=O)NC(=O)[C@H](CC(N)=O)NC1=O)C1CCCCC1)[C@@H](C)O [compound 127, Ac-(5Fluoro-W)-T-(Chg)-C(3)-N-N-(4Fluoro-F)-H-D-C(3)-(7Aza-W)-(Aze)-[D-Lys(DOTA)]-NH2] (Ac-[Trp(5-F)]T[Chg]CNN[Phe(4-F)]HDC[Trp(7-aza)][Aze][dK](DOTA)-NH2; disulfide 4-10) | 10 to 100
CC(=O)N[C@@H](Cc1c[nH]c2ccc(F)cc12)C(=O)N[C@H](C(=O)N[C@H](C(=O)N[C@H]1CSSC[C@@H](C(=O)N[C@@H](Cc2c[nH]c3ncccc23)C(=O)N2C[C@H](F)C[C@H]2C(=O)N[C@H](CCCCNC(=O)CN2CCN(CC(=O)O)CCN(CC(=O)O)CCN(CC(=O)O)CC2)C(N)=O)NC(=O)[C@H](CC(=O)O)NC(=O)[C@H](Cc2cnc[nH]2)NC(=O)[C@H](Cc2ccc(F)cc2)NC(=O)[C@H](CC(N)=O)NC(=O)[C@H](CC(N)=O)NC1=O)C(C)(C)C)[C@@H](C)O [compound 129, Ac-(5Fluoro-W)-T-(Tbg)-C(3)-N-N-(4Fluoro-F)-H-D-C(3)-(7Aza-W)-(trans4Fluoro-P)-[D-Lys(DOTA)]-NH2] (Ac-[Trp(5-F)]T[Tle]CNN[Phe(4-F)]HDC[Trp(7-aza)][Pro(trans-4-F)][dK](DOTA)-NH2; disulfide 4-10) | 10 to 100
CCCC[C@H](NC(=O)[C@@H](NC(=O)[C@H](Cc1c[nH]c2ccc(F)cc12)NC(C)=O)[C@@H](C)O)C(=O)N[C@H]1CSSC[C@@H](C(=O)N[C@@H](Cc2c[nH]c3ncccc23)C(=O)N2C[C@H](F)C[C@H]2C(=O)N[C@H](CCCCNC(=O)CN2CCN(CC(=O)O)CCN(CC(=O)O)CCN(CC(=O)O)CC2)C(N)=O)NC(=O)[C@H](CC(=O)O)NC(=O)[C@H](Cc2cnc[nH]2)NC(=O)[C@H](Cc2ccc(F)cc2)NC(=O)[C@H](CC(N)=O)NC(=O)[C@H](CC(N)=O)NC1=O [compound 132, Ac-(5Fluoro-W)-T-(Nle)-C(3)-N-N-(4Fluoro-F)-H-D-C(3)-(7Aza-W)-(trans4Fluoro-P)-[D-Lys(DOTA)]-NH2] (Ac-[Trp(5-F)]T[Nle]CNN[Phe(4-F)]HDC[Trp(7-aza)][Pro(trans-4-F)][dK](DOTA)-NH2; disulfide 4-10) | 1 to 10

Results, then the compound that gave them:

Kd [nM] | Compound
1 to 10 | CC(=O)N[C@@H](Cc1c[nH]c2ccc(F)cc12)C(=O)N[C@H](C(=O)N[C@@H](CC1CCCCC1)C(=O)N[C@H]1CSSC[C@@H](C(=O)N[C@@H](Cc2c[nH]c3ncccc23)C(=O)N2CC[C@H]2C(=O)N[C@H](CCCCNC(=O)CN2CCN(CC(=O)O)CCN(CC(=O)O)CCN(CC(=O)O)CC2)C(N)=O)NC(=O)[C@H](CC(=O)O)NC(=O)[C@H](Cc2cnc[nH]2)NC(=O)[C@H](Cc2ccc(F)cc2)NC(=O)[C@H](CC(N)=O)NC(=O)[C@H](CC(N)=O)NC1=O)[C@@H](C)O [compound 125, Ac-(5Fluoro-W)-T-(CHA)-C(3)-N-N-(4Fluoro-F)-H-D-C(3)-(7Aza-W)-(Aze)-[D-Lys(DOTA)]-NH2] (Ac-[Trp(5-F)]T[Cha]CNN[Phe(4-F)]HDC[Trp(7-aza)][Aze][dK](DOTA)-NH2; disulfide 4-10)
1 to 10 | CC(=O)N[C@@H](Cc1c[nH]c2ccc(F)cc12)C(=O)N[C@H](C(=O)N[C@@H](Cc1ccccc1C(F)(F)F)C(=O)N[C@H]1CSSC[C@@H](C(=O)N[C@@H](Cc2c[nH]c3ncccc23)C(=O)N2CC[C@H]2C(=O)N[C@H](CCCCNC(=O)CN2CCN(CC(=O)O)CCN(CC(=O)O)CCN(CC(=O)O)CC2)C(N)=O)NC(=O)[C@H](CC(=O)O)NC(=O)[C@H](Cc2cnc[nH]2)NC(=O)[C@H](Cc2ccc(F)cc2)NC(=O)[C@H](CC(N)=O)NC(=O)[C@H](CC(N)=O)NC1=O)[C@@H](C)O [compound 128, Ac-(5Fluoro-W)-T-(2CF3-F)-C(3)-N-N-(4Fluoro-F)-H-D-C(3)-(7Aza-W)-(Aze)-[D-Lys(DOTA)]-NH2] (Ac-[Trp(5-F)]T[Phe(2-CF3)]CNN[Phe(4-F)]HDC[Trp(7-aza)][Aze][dK](DOTA)-NH2; disulfide 4-10)
1 to 10 | CCC(CC)[C@H](NC(=O)[C@@H](NC(=O)[C@H](Cc1c[nH]c2ccc(F)cc12)NC(C)=O)[C@@H](C)O)C(=O)N[C@H]1CSSC[C@@H](C(=O)N[C@@H](Cc2c[nH]c3ncccc23)C(=O)N2C[C@H](F)C[C@H]2C(=O)N[C@H](CCCCNC(=O)CN2CCN(CC(=O)O)CCN(CC(=O)O)CCN(CC(=O)O)CC2)C(N)=O)NC(=O)[C@H](CC(=O)O)NC(=O)[C@H](Cc2c[nH]cn2)NC(=O)[C@H](Cc2ccc(F)cc2)NC(=O)[C@H](CC(N)=O)NC(=O)[C@H](CC(N)=O)NC1=O [compound 130, Ac-(5Fluoro-W)-T-(Env)-C(3)-N-N-(4Fluoro-F)-H-D-C(3)-(7Aza-W)-(trans4Fluoro-P)-[D-Lys(DOTA)]-NH2] (Ac-[Trp(5-F)]T[Nva(3-Et)]CNN[Phe(4-F)]HDC[Trp(7-aza)][Pro(trans-4-F)][dK](DOTA)-NH2; disulfide 4-10)
1 to 10 | CC(=O)N[C@@H](Cc1c[nH]c2ccc(F)cc12)C(=O)N[C@H](C(=O)N[C@H](C(=O)N[C@H]1CSSC[C@@H](C(=O)N[C@@H](Cc2c[nH]c3ncccc23)C(=O)N2C[C@H](F)C[C@H]2C(=O)N[C@H](CCCCNC(=O)CN2CCN(CC(=O)O)CCN(CC(=O)O)CCN(CC(=O)O)CC2)C(N)=O)NC(=O)[C@H](CC(=O)O)NC(=O)[C@H](Cc2cnc[nH]2)NC(=O)[C@H](Cc2ccc(F)cc2)NC(=O)[C@H](CC(N)=O)NC(=O)[C@H](CC(N)=O)NC1=O)C1CCOCC1)[C@@H](C)O [compound 131, Ac-(5Fluoro-W)-T-(THPG)-C(3)-N-N-(4Fluoro-F)-H-D-C(3)-(7Aza-W)-(trans4Fluoro-P)-[D-Lys(DOTA)]-NH2] (Ac-[Trp(5-F)]T[Gly(4-THP)]CNN[Phe(4-F)]HDC[Trp(7-aza)][Pro(trans-4-F)][dK](DOTA)-NH2; disulfide 4-10)

— patent US20250011368A1, “DLL3 TARGETING PEPTIDES AND CONSTRUCTS THEREOF” (MARIANA ONCOLOGY INC., priority 2023, published 2025)
